# Read-outs that look alike come from different tables or passages of the source.
# How the values were obtained:
# [1] = target: T1, delta opioid receptor (Mus musculus, UniProt P32300); assay: NG108-15, 24-well delta opioid receptor binding assay
# T1 construct: NG108-15 cell membranes were purchased from Applied Cell Sciences (Rockville, Md.); host or cells: NG108-15 cell membranes
# [2] = target: T2, delta opioid receptor (Rattus norvegicus, UniProt P33533); assay: Rat brain delta opioid receptor binding assay; conditions: rat forebrain, [3H]naltrindole ligand; read-out: δ-binding (Naltrindole ligand) Ki
# T2 construct: the forebrains were homogenized in Tris buffer in a Teflon®-glass homogenizer; from tissue; host or cells: forebrain of male Wistar rats, particulate (membrane) preparation
# T2 sequence (P33533 whole entry): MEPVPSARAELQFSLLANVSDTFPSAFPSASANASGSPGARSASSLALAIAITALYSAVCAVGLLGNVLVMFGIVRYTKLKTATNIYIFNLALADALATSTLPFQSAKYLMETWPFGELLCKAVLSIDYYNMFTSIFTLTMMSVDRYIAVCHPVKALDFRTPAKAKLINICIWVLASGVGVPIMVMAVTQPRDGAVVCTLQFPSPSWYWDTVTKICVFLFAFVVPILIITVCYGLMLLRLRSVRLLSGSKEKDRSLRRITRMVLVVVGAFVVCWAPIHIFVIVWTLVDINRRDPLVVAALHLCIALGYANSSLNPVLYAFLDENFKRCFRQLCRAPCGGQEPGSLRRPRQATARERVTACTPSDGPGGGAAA
# [3] = target: T1, delta opioid receptor; assay: [35S]GTPγS binding assay in NG108-15 cell membranes (delta opioid functional assay), 200 nM screen; type: biochemical; conditions: for GTPγS δ-RelEfficacy @200 nM: 200 nM test compound, relative to calculated max of SNC80 dose response curve; for GTPγS δ-RelEfficacy @200 nM / EC50 / GTPγS δ-opioid receptor Rel Efficacy: NG108-15 cell membranes; for GTPγS δ-RelEfficacy @200 nM / EC50: averages if tested more than once; for GTPγS δ-opioid receptor Rel Efficacy: relative efficacy from dose response
# [4] = target: T3, mu opioid receptor (Rattus norvegicus, UniProt P33535); assay: Rat brain mu opioid receptor binding assay; conditions: rat forebrain, [3H]DAMGO ligand
# T3 construct: the forebrains were homogenized in Tris buffer in a Teflon®-glass homogenizer; from tissue; host or cells: forebrain of male Wistar rats, particulate (membrane) preparation
# T3 sequence (P33535 whole entry): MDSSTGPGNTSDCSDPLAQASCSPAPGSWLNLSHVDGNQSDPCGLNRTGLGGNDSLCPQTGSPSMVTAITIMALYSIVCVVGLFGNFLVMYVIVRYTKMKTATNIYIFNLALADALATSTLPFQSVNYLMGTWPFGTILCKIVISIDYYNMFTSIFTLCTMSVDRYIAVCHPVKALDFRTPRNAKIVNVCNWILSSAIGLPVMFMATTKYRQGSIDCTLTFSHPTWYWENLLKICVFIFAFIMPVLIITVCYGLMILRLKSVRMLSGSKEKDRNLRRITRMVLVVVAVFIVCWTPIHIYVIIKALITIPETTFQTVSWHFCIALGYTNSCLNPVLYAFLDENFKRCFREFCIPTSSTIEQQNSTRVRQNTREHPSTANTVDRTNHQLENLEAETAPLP
# [5] = target: hMOR (mu opioid receptor) (Homo sapiens, UniProt P35372); assay: [35S]GTPγS binding assays in CHO-hMOR cell membranes (mu opioid functional assay); type: biochemical; conditions: 10 μM; CHO-hMOR cell membranes; inhibition of agonist-stimulated GTPγS binding
# Sequence of hMOR (mu opioid receptor) (P35372 whole entry, looked up): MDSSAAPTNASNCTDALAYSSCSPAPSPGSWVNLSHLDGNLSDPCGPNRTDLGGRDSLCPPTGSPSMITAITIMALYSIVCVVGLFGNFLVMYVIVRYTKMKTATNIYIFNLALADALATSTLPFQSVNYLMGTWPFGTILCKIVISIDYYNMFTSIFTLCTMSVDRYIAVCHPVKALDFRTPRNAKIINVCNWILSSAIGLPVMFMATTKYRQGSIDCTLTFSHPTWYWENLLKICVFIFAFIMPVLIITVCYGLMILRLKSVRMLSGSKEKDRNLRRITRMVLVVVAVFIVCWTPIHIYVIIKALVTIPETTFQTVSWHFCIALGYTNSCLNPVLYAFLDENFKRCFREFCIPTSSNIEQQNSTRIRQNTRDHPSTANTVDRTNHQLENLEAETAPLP
# [6] = [3H]Naltrindole ligand, NG108-15 cell membranes, read-out: δ-binding NG108 cell membrane Ki
# [7] = read-out: GTPγS δ-opioid receptor EC50
# [8] = GTPγS δ-opioid receptor EC50 (μM)
# T1 sequence (P32300 whole entry): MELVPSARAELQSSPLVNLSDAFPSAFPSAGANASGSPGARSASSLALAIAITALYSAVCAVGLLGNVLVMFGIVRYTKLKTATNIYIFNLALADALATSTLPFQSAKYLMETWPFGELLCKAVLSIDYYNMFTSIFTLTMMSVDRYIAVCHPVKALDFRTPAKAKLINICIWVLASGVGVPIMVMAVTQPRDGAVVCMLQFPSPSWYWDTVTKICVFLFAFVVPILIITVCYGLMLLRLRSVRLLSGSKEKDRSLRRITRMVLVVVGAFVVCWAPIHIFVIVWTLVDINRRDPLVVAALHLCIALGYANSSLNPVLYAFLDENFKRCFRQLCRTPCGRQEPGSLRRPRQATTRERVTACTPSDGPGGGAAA
SMILES,"Ki [1, 6]",GTPγS δ-RelEfficacy @200 nM [3],"EC50 [3, 7]",GTPγS δ-opioid receptor Rel Efficacy [3],Ki [1],also measured
COc1ccc(Oc2nc(-c3cncnc3)ncc2NCC2COCCN2)cc1 (racemic) [Cpd 278],1.64 nM,0.263,,,,Ki [2]: 999 nM
COc1ccc(-c2ncc(NC[C@@H]3CCCN3)c(Oc3ccc(O)cc3)n2)cn1 [Cpd 59],1.54 nM,,0.433 µM,1.0063,,Ki [2]: 0.954 nM; Ki ([4]; read-out: μ-binding Ki): 1610 nM; inhibition at 10 µM ([3]; read-out: GTPγS δ-opioid receptor % Inh @10 μM): 1.48%
Fc1cncc(-c2ncc(NC[C@@H]3CCCN3)c(Oc3ccc(OCC(F)(F)F)cc3)n2)c1 [Cpd 124],,,,,0.3 nM,Ki [2]: 126 nM
Fc1cncc(-c2ncc(NC[C@@H]3CCCN3)c(Oc3ccc(Cl)cc3)n2)c1 [Cpd 128],0.4 nM,,0.453 µM,1.144,,
N#Cc1cncc(-c2ncc(NC[C@@H]3CCCN3)c(Oc3ccc(Cl)cc3)n2)c1 [Cpd 129],0.3 nM,0.633,0.0551 µM,0.976,,
Clc1ccc(Oc2nc(-c3cncnc3)ncc2NC[C@@H]2CCCN2)cc1 [Cpd 130],2 nM,0.245,,,,
COc1ccc(Oc2nc(-c3cncc(F)c3)ncc2NC[C@@H]2CCCN2)cc1F [Cpd 131],0.2 nM,0.819,0.076 µM,1.063,,
COc1ccc(Oc2nc(-c3cncnc3)ncc2NC[C@@H]2CCCN2)cc1F [Cpd 133],0.4 nM,0.755,0.028 µM,1.041,,
"N#Cc1cccc(Oc2nc(-c3cccnc3)ncc2NC[C@@H]2CCCN2)c1 [Cpd 135, 3-{2-Pyridin-3-yl-5-[(pyrrolidin-2-(S)-ylmethyl)-amino]-pyrimidin-4-yloxy}-benzonitrile]",,,1.38 µM,,2 nM,
N#Cc1ccc(Oc2nc(-c3cccnc3)ncc2NC[C@@H]2CCCN2)cc1 [Cpd 136],7 nM,,9 µM,0.789,,
N#Cc1ccc(Oc2nc(-c3cccnc3)ncc2NC[C@@H]2CCCN2)cc1F [Cpd 137],9 nM,,> 10 µM,,,
"O=C(Nc1ccc(Oc2nc(-c3cccnc3)ncc2NC[C@@H]2CCCN2)cc1)C1CC1 [Cpd 138, Cyclopropanecarboxylic acid (4-{2-pyridin-3-yl-5-[(pyrrolidin-2-(S)-ylmethyl)-amino]-pyrimidin-4-yloxy}-phenyl)-amide]",,,1.34 µM,,4 nM,
CC(C)Oc1ccc(Oc2nc(-c3cncc(C#N)c3)ncc2NC[C@@H]2CCCN2)cc1 [Cpd 139],2 nM,,2.27 µM,1.118,,
CC(C)Oc1ccc(Oc2nc(-c3cncnc3)ncc2NC[C@@H]2CCCN2)cc1 [Cpd 140],8 nM,0.137,,,,
CC(C)Oc1ccc(Oc2nc(-c3cccnc3)ncc2NC[C@@H]2CCCN2)cc1 [Cpd 141],3 nM,0.149,,,,
COc1ccc(Oc2nc(-c3cc(F)cc(C#N)c3)ncc2NC[C@@H]2CCCN2)cc1 [Cpd 142],0.2 nM,0.931,0.029 µM,1.006,,
N#Cc1cncc(-c2ncc(NC[C@@H]3CCCN3)c(Oc3ccc(CO)cc3)n2)c1 [Cpd 143],1 nM,,0.69 µM,1.066,,
OCc1ccc(Oc2nc(-c3cncnc3)ncc2NC[C@@H]2CCCN2)cc1 [Cpd 144],,0.191,,,7 nM,
OCc1ccc(Oc2nc(-c3cccnc3)ncc2NC[C@@H]2CCCN2)cc1 [Cpd 145],5 nM,,4.02 µM,1.180,,
N#Cc1cncc(-c2ncc(NC[C@@H]3CCCN3)c(Oc3ccc(F)cc3)n2)c1 [Cpd 146],0.4 nM,,0.387 µM,1.197,,

SMILES,"Ki [1, 6]",GTPγS δ-RelEfficacy @200 nM [3],"EC50 [3, 7]",GTPγS δ-opioid receptor Rel Efficacy [3],Ki [1],also measured
Cc1ccc(Oc2nc(-c3cncc(C#N)c3)ncc2NC[C@@H]2CCCN2)cc1 [Cpd 147],,,,1.077,0.4 nM,"Ki ([4]; μ-binding Ki): 438 nM; EC50 [3, 8]: 0.051 µM"
Cc1ccc(Oc2nc(-c3cncnc3)ncc2NC[C@@H]2CCCN2)cc1 [Cpd 148],1 nM,0.411,0.158 µM,1.052,,
Cc1ccc(Oc2nc(-c3cccnc3)ncc2NC[C@@H]2CCCN2)cc1 [Cpd 149],1 nM,0.403,0.236 µM,1.026,,
CSc1ccc(Oc2nc(-c3cncc(C#N)c3)ncc2NC[C@@H]2CCCN2)cc1 [Cpd 150],,0.801,,1.093,0.3 nM,"EC50 [3, 8]: 0.033 µM"
CSc1ccc(Oc2nc(-c3cncnc3)ncc2NC[C@@H]2CCCN2)cc1 [Cpd 151],1 nM,0.704,0.119 µM,1.121,,
CSc1ccc(Oc2nc(-c3cccnc3)ncc2NC[C@@H]2CCCN2)cc1 [Cpd 152],0.4 nM,0.607,0.07 µM,1.083,,
COCc1ccc(Oc2nc(-c3cncc(C#N)c3)ncc2NC[C@@H]2CCCN2)cc1 [Cpd 153],1 nM,0.454,0.193 µM,1.120,,
COCc1ccc(Oc2nc(-c3cncnc3)ncc2NC[C@@H]2CCCN2)cc1 [Cpd 154],,0.164,,,9 nM,
COCc1ccc(Oc2nc(-c3cccnc3)ncc2NC[C@@H]2CCCN2)cc1 [Cpd 155],,0.170,,,5 nM,
"Oc1ccc(Oc2nc(-c3cncnc3)ncc2NC[C@@H]2CCCN2)cc1 [Cpd 156, 4-{5-[(Pyrrolidin-2-(S)-ylmethyl)-amino]-[2,5]bipyrimidinyl-4-yloxy}-phenol]",,,0.177 µM,,1 nM,
CCN(CC)C(=O)c1cccc(Oc2nc(-c3cccnc3)ncc2NC[C@@H]2CCCN2)c1 [Cpd 157],40 nM,0.213,,,,
O=C(c1cccc(Oc2nc(-c3cccnc3)ncc2NC[C@@H]2CCCN2)c1)N1CCCC1 [Cpd 166],,0.169,,,27 nM,
O=C(c1cccc(Oc2nc(-c3cccnc3)ncc2NC[C@@H]2CCCN2)c1)N1CCCCC1 [Cpd 167],21 nM,0.328,,,,
O=C(c1cccc(Oc2nc(-c3cccnc3)ncc2NC[C@@H]2CCCN2)c1)N1CCOCC1 [Cpd 168],50 nM,0.300,,,,
COc1ccc(Oc2nc(-c3cccnc3)ncc2N[C@H]2CCNC2)cc1 [Cpd 237],,,,,,GTPγS μ-opioid receptor % Inh @10 μM [5]: 3.524%
COc1ccc(Oc2nc(-c3cncc(F)c3)ncc2NC[C@H]2COCCN2)cc1 [Cpd 281],1 nM,0.221,,,,
COc1ccc(Oc2nc(-c3cncc(C#N)c3)ncc2NC[C@@H](N)CC(C)C)cc1 [Cpd 294],6 nM,,> 10 µM,,,
COc1ccc(Oc2nc(-c3cncc(C#N)c3)ncc2NC[C@H]2C[C@H](N)C2)cc1 [Cpd 301],,,,1.085,0.5 nM,"Ki ([4]; μ-binding Ki): 658 nM; EC50 [3, 8]: 0.087 µM"
COc1ccc(Oc2nc(-c3cncnc3)ncc2NC[C@H]2C[C@H](N)C2)cc1 [Cpd 302],1 nM,0.393,,,,
COc1ccc(Oc2nc(-c3cncnc3)ncc2NC2CC(N)C2)cc1 (stereo not drawn) [Cpd 304],,0.228,,,2 nM,

# From US8513271B2, “Pyrimidine compounds as delta opioid receptor modulators” (Janssen Pharmaceutica, NV, priority 2009, dated 2013)
